Patent publication US20250073185A1, “Composition Including Benzylaminoethanol Derivative as Active Ingredient for Prevention or Treatment of Metabolic Disease” (JLBIOTHERAPEUTICS, priority 2021, published 2025)

System: 3T3-L1 cells
Assay: Cytotoxicity measurement (WST assay, EZ-Cytox)
Type: cell-based
Conditions: 3T3-L1 cells, 0.1, 1, 5, 10 and 25 μM, 48 hours
Protocol: After 48 hours, 10 μl of EZ-Cytox was added to each cell culture which was then incubated for 30 minutes, and the absorbance at 450 nm was measured using a microplate reader.

## OCCNCc1cc(Br)ccc1OCc1ccc(F)c(C(F)(F)F)c1 [AZ1, 2-(5-bromo-2-(4-fluoro-3-(trifluoromethyl)benzyloxy)benzylamino)ethanol]
  cytotoxicity (cell viability vs untreated cells): did not exhibit cytotoxicity
